Where two headings read alike, the source gives them in different places.
Legend:
NCI-60 cell lines = assay: NCI-60 one-dose screen, mean of all cell lines; assay type: cell-based, human; settings: 10 μM, 48 h
Description: (§1) NCI-60 Analysis. 1a and 6a were submitted to National Cancer Institute's (NCI) Developmental Therapeutics Program (DTP) where the cytotoxicity profile was investigated across their 60 human cancer cell line panel according to the protocol available on multiple sources (71-73, 83). The COMPARE algorithm (73), was utilized to evaluate the activity profile of 6a in comparison to those of known cytotoxins established in marketed drugs and standard agent data sets in order to correlate plausible modes of action.
(§2) NCI-60 analysis. Compounds 1a, 5a and 6a were submitted to the National Cancer Institute's (NCI) Developmental Therapeutics Program (DTP). NCI-60 program consists in a panel of 60 human cancer cell lines from a variety of cancers, including refractory tumors such as lung, ovarian, CRC, breast, brain and renal cancers, and melanomas together with more treatable cancers such as leukemias (71). 1a [NSC: 803071], 5a [NSC: 820332] and 6a [NSC: 811013] were initially screened at one dose (10 μM) at 48 h. Then, NCI selected only compound 6a to perform dose-response characterization (72).

BT-549 (breast) = assay: NCI-60 one-dose screen, BT-549; assay type: cell-based, human; settings: BT-549, 10 μM, 48 h
Description: as §1, §2

TK-10 (renal) = assay: NCI-60 one-dose screen, TK-10; assay type: cell-based, human; settings: TK-10, 10 μM, 48 h
Description: as §1, §2

HCT-116 CRC cells = assay: MTT cell viability assay, HCT-116; assay type: cell-based, human; settings: Homo sapiens, read-out: IC50
Description: (§3) Cell Culture Conditions. The cell lines were obtained from the American Type Culture Collection (ATCC). PANC-1 and Caco-2 cell lines were maintained in DMEM medium (Gibco); HT-29, HCT-116 and RKO cells were maintained in McCoy's 5A medium (Gibco); and DU-145 and H1299 cells were maintained in RPMI 1640 medium (Gibco), supplemented with 10% fetal bovine serum (FBS; Gibco) and 1% antibiotics (10.00 units/mL penicillin and 10.00 mg/mL streptomycin; Gibco). Cells were preserved in tissue culture flasks at 37° C. and 5% CO2. Culture medium was replaced every three days.
(§4) Cell Viability Assay. The effect of each compound on cell viability was tested using the MTT assay (81). Briefly, 9000 cells/well were grown in 96-well plates for 12 h. Then these cells were incubated with either DMSO (control) or nine different concentration between 0.01-50 μM of the test compounds for 24, 48, and 72 h. Three hours before the termination point, 20 μL of MTT were added to measure cellular viability. The resultant formazan crystals were dissolved in 50 μL of DMSO, and absorbance was measured at 570 nm and 630 nm wavelengths. IC50, GI50, TGI and LC50 values were calculated using OriginPro 8.5.1.

[1] = tested on: human CRC cells (HT-29, HCT-116, RKO and CACO-2); assay: MTT assay, panel of four CRC cells; assay type: cell-based; settings: 4 CRC cells
Description: Cell Culture Conditions. […] Culture medium was replaced every three days.
Evaluation of the antiproliferative activity of methylseleno-NSAIDs, MSA and NSAIDs alone or in combination. […] CRC cells were treated for 24, 48 and 72 h at different concentrations to stablish the dose-response curves.

DU-145 (prostate) = assay: NCI-60 one-dose screen, DU-145; assay type: cell-based, human; settings: DU-145, 10 μM, 48 h
Description: as §1, §2

[2] = tested on: PANC-1 (pancreatic carcinoma); assay: MTT cell viability assay, Panc-1; settings: Homo sapiens, PANC-1, 48 h, read-out: cell viability
Description: as §3, §4
(§5) Evaluation of the antiproliferative activities of the novel molecules. […] These four cell lines were treated with each compound at three concentrations (5, 25 and 50 μM) for 48 h.

HT-29 (CRC) = assay: MTT cell viability assay, HT-29; settings: for CC50: read-out: LC50; for viability at 5 µM / viability at 25 µM / viability at 50 µM: read-out: cell viability
Description: as §3, §4, §5

RKO CRC cells = assay: cells; settings: Homo sapiens
Description: as §3, §4

CACO-2 CRC cells = assay: cells; settings: Homo sapiens
Description: as §3, §4

H1299 (lung carcinoma) = assay: MTT cell viability assay, H1299; settings: Homo sapiens, NCI-H1299, 48 h, read-out: cell viability
Description: as §3, §4, §5

[3] = tested on: DU-145 (prostate carcinoma); assay: MTT cell viability assay, DU-145; settings: Homo sapiens, DU-145, 48 h, read-out: cell viability
Description: as §3, §4, §5

SK-MEL-28 (melanoma) = assay: NCI-60 one-dose screen, SK-MEL-28; assay type: cell-based, human; settings: SK-MEL-28, 10 μM, 48 h
Description: as §1, §2

## COc1ccc2c(c1)c(CC(=O)[Se]C)c(C)n2C(=O)c1ccc(Cl)cc1 [Compound 5a, Se-methyl 2-(1-(4-chlorobenzoyl)-5-methoxy-2-methyl-1H-indol-3-yl)ethane-selenoate]
NCI-60 cell lines
  GP mean value towards all cell lines: 4.01%
BT-549 (breast)
  GP: −80.79%
TK-10 (renal)
  GP: −58.40%
HCT-116 CRC cells; HCT-116, 24 h
  IC50: > 50 µM
HCT-116 CRC cells; HCT-116, 48 h
  IC50: 5.6 ± 2.6 µM
HCT-116 CRC cells; HCT-116, 72 h
  IC50: 18.7 ± 4.9 µM
[1]
  anti-tumoral activity versus MSA and NSAIDs as single agents or combined: higher anti-tumoral activity
DU-145 (prostate)
  GP: −7.90%
[2]
  viability at 5 µM: 61.9 ± 4.4%
  viability at 25 µM: 66.6 ± 1.9%
  viability at 50 µM: 60.2 ± 5.5%
HT-29 (CRC)
  increase on cytotoxic potency compared with parent NSAID scaffolds: three-fold
HT-29 (CRC); HT-29, 24 h
  TGI: >50 µM
HT-29 (CRC); HT-29, 48 h
  TGI: 0.6 ± 0.5 µM
HT-29 (CRC); HT-29, 72 h
  TGI: 5.1 ± 2.2 µM
HT-29 (CRC); Homo sapiens, HT-29, 24 h
  GI50: 4.9 ± 2.2 µM
  IC50: > 50 µM
  CC50: > 50 µM
HT-29 (CRC); Homo sapiens, HT-29, 48 h
  GI50: 3.2 ± 1.9 µM
  IC50: 3.3 ± 0.9 µM
  CC50: > 50 µM
  viability at 5 µM: 26.3 ± 2.9%
  viability at 25 µM: 17.9 ± 3.7%
  viability at 50 µM: 18 ± 3.5%
HT-29 (CRC); Homo sapiens, HT-29, 72 h
  GI50: 2.9 ± 0.8 µM
  IC50: 3.3 ± 0.3 µM
  CC50: > 50 µM
HT-29 (CRC); Homo sapiens, HT-29, read-out: inhibition in cell viability
  cytotoxicity at 5 µM: 75 to 80%
RKO CRC cells; 24 h
  IC50: > 50 µM
RKO CRC cells; 48 h
  IC50: 10.1 ± 6.9 µM
RKO CRC cells; 72 h
  IC50: 11.6 ± 5.9 µM
CACO-2 CRC cells; Caco-2, 24 h
  IC50: > 50 µM
CACO-2 CRC cells; Caco-2, 48 h
  IC50: 4.2 ± 1.7 µM
CACO-2 CRC cells; Caco-2, 72 h
  IC50: 5.5 ± 1.1 µM
H1299 (lung carcinoma)
  viability at 5 µM: 49.5 ± 9.4%
  viability at 25 µM: 37 ± 5.6%
  viability at 50 µM: 32.4 ± 5.8%
[3]
  viability at 5 µM: 52.1 ± 1.5%
  viability at 25 µM: 34.5 ± 3%
  viability at 50 µM: 27.4 ± 1.7%
SK-MEL-28 (melanoma)
  GP: −7.85%

## CC1=C(CC(=O)O)c2cc(F)ccc2/C1=C\c1ccc([S+](C)[O-])cc1 (centres unmarked) [Sulin, sulindac, reference compound]
HCT-116 CRC cells; HCT-116, 24 h
  IC50: > 50 µM
HCT-116 CRC cells; HCT-116, 48 h
  IC50: > 50 µM
HCT-116 CRC cells; HCT-116, 72 h
  IC50: > 50 µM
[2]
  viability at 5 µM: 88 ± 22.5%
  viability at 25 µM: 90.6 ± 28.9%
  viability at 50 µM: 84.5 ± 32.7%
HT-29 (CRC); HT-29, 24 h
  TGI: >50 µM
HT-29 (CRC); HT-29, 48 h
  TGI: >50 µM
HT-29 (CRC); HT-29, 72 h
  TGI: >50 µM
HT-29 (CRC); Homo sapiens, HT-29, 24 h
  GI50: > 50 µM
  IC50: > 50 µM
HT-29 (CRC); Homo sapiens, HT-29, 48 h
  GI50: > 50 µM
  IC50: > 50 µM
  viability at 5 µM: 99.1 ± 2.4%
  viability at 25 µM: 97.3 ± 2.1%
  viability at 50 µM: 98.6 ± 3.1%
HT-29 (CRC); Homo sapiens, HT-29, 72 h
  GI50: > 50 µM
  IC50: > 50 µM
RKO CRC cells; 24 h
  IC50: > 50 µM
RKO CRC cells; 48 h
  IC50: > 50 µM
RKO CRC cells; 72 h
  IC50: > 50 µM
CACO-2 CRC cells; Caco-2, 24 h
  IC50: > 50 µM
CACO-2 CRC cells; Caco-2, 48 h
  IC50: > 50 µM
CACO-2 CRC cells; Caco-2, 72 h
  IC50: > 50 µM
H1299 (lung carcinoma)
  viability at 5 µM: 87.5 ± 2.5%
  viability at 25 µM: 72.5 ± 2.7%
  viability at 50 µM: 84.9 ± 12.1%
[3]
  viability at 5 µM: 82.2 ± 1.9%
  viability at 25 µM: 83.2 ± 7.2%
  viability at 50 µM: 85.5 ± 3.7%

From US20230219886A1, “NOVEL SELENO-NSAID ANALOGS AND USES THEREOF” (THE PENN STATE RESEARCH FOUNDATION, priority 2020, published 2023)
